The values below come from US20100255580A1, “Differentiation of Human Embryonic Stem Cells” (LIFESCCAN, INC., priority 2007, published 2010).

Experiment [1] concerns human embryonic stem cell line H9. Briefly: Real-time PCR of marker gene expression, H9 on MEF (Examples 2-7). It is filed as cell-based. As to the method: Cells were harvested at the time points indicated in FIG. 3 and assayed by PCR for the expression of genes shown (FIGS. 3, 4 and 5).
After this time interval, the cells were then treated for six days with combinations of retinoic acid and FGF as outlined in Example 2, then the culture medium was removed and replaced with medium comprising DMEM/F12 with 2% FBS, containing the γ-secretase inhibitors L-685,458 at 10 μM for three days.
Cells were continuously cultured for another 3 to 5 days in basal medium with retinoic acid at 1 μM, alone or with bFGF. RNA samples were harvested from cells at various time points along this process to help evaluate the directed differentiation of the cells. Furthermore, culture medium and factors were regularly removed and replenished throughout the differentiation protocol.
RNA extraction, purification, and cDNA synthesis. RNA samples were purified by binding to a silica-gel membrane (Rneasy Mini Kit, Qiagen, CA) in the presence of an ethanol-containing, high-salt buffer followed by washing to remove contaminants. The RNA was further purified using a TURBO DNA-free kit (Ambion, INC), and high-quality RNA was then eluted in water. Yield and purity were assessed by A260 and A280 readings on a spectrophotometer. cDNA copies were made from purified RNA using an ABI (ABI, CA) high capacity cDNA archive kit.
(§1) Real-time PCR amplification and quantitative analysis.
(§2) Final data were expressed relative to a calibrator sample.
In general terms: Real-time PCR tracks product formation cycle by cycle.

Experiment [2] concerns H9P44 cells. Briefly: RT-PCR of definitive endoderm markers, growth factor combinations in low serum on MEFs (Example 22). Format: cell-based, human. As to conditions: H9P44 on MEF; Day 3; normalized to Group 1 (control). As to the method: as §1, §2
H9P44 cells were plated onto 6 well plates previously coated with mitomycin treated mouse embryonic fibroblasts (MEF). Cells were grown until 70 to 80% confluency in ES cell medium consisting of DMEM/F12 (Invitrogen/GIBCO) supplemented with 20% knockout serum replacement, 100 nM MEM nonessential amino acids, 0.5 mM beta-mercaptoethanol, 2 mM L-glutamine (all from Invitrogen/GIBCO) and 8 ng/ml human basic fibroblast growth factor (bFGF) (R&D Systems).
Growth factors were added to increasing concentration of FBS in a stepwise manner as indicated in the following regimen: • Day 0: 0% FBS in DMEM/F12 • Day 1: 0.5% FBS in DMEM/F12 • Day 2: 2% FBS in DMEM/F12. • Day 3: Cells were harvested for FACS analysis and RT-PCR.
All growth factors were purchased from R&D Systems, MN. A detailed description and concentration of growth factors for each treatment group is shown below.
For RT-PCR analysis, cells were analyzed for expression of selected panel of definitive endoderm markers.

The test system of experiment [3] is human embryonic stem cells (H9, H7) on MATRIGEL
Briefly: Real-time PCR of definitive endoderm markers, DE protocol on […] or fibronectin (feeder-free). It is filed as cell-based. Particulars: for definitive endoderm markers (real-time PCR): H7 and H9, low serum+AA+/−Wnt ligands, 5 days. How it is done: as §1, §2
Differentiation of embryonic stem cells to definitive endoderm was carried out as previously described in Nature Biotechnology 23, 1534-1541 (December 2005). […] In all subsequent examples unless otherwise noted, this treatment regimen will be referred to as the definite endoderm (DE) protocol. In parallel, H9, H7, or H1 cells cultured on MEF feeders were also exposed to the same DE protocol outlined above.
At day 5, the cultures were analyzed by FACS for CXCR4, E-cadherin, CD9, CD99, and N-cadherin (CD56) expression and by real time PCR for SOX-17, SOX-7, Alpha-fetal protein (AFP), CXCR4, Brychyury (Bry), gooscecoid (GSC), HNF-3 beta, and GATA4. AFP and SOX-7 are regarded as visceral endoderm markers while GATA4, HNF-3beta and SOX-17 represent definite endoderm markers and GSC, Bry, and CXCR4 represent markers of primitive streak.
In some of the cultures 20 ng/ml Wnt-3a (Catalog #1324-WN-002, R&D Systems, MN), 20 ng/ml Wnt-5a (Catalog #654-WN-010, R&D Systems, MN), 25 ng/ml Wnt-7a (Catalog #3008-WN-025, R&D Systems, MN), or 25 ng/ml Wnt-5b (Catalog #3006-WN-025, R&D Systems, MN) was added throughout the five day treatment. FIG. 24 depicts phase contrast images of H9P46 definitive endoderm culture in the presence of high concentration of (a) AA or (b) AA+20 ng/ml Wnt-3a. FIG. 25 depicts the expression of CXCR4 by FACS at day 5 for H7P44, and H9P46 lines cultured on […] (1:30 dilution) and exposed to the DE protocol+Wnt-3a (FIG. 25, panels b and d) and −Wnt-3a (FIG. 25, panels a and c).
Control cultures were not treated with Wnt-3a. FIG. 27, panel a depicts the expression of CXCR4 by FACS at day 5 in the absence of Wnt-3a, b) 10 ng/ml Wnt-3a, c) 20 ng/ml Wnt-3a and d) 50 ng/ml Wnt-3a. In the absence of Wnt-3a the expression of CXCR4 was very low. […] Real-time PCR results (FIG. 28, panel a) also confirm this finding.
In a separate study, H9 p52 cells were plated on 1:30 low growth factor […]™. For the first 2 days of the DE protocol a range of Wnt3A doses was used: 10 ng/ml, 5 ng/ml and 1 ng/ml. […] The number of cells at the end of the experiment is noted in FIG. 28, panel c.
In order to confirm that the effect of Wnt-3a was through the Wnt pathway, a GSK-3 inhibitor was used to activate the downstream targets of Wnt, such as beta catenin. […] FIG. 29, panel a depicts the expression of CXCR4 by FACS at day 5 in the absence of Wnt-3a or GSK-3B inhibitor, b) +20 ng/ml Wnt-3a, c) +1000 nM GSK-3B inhibitor IX, d) +500 nM GSK-3B inhibitor IX, e) +100 nM GSK-3B inhibitor IX, f) +10 nM GSK-3B inhibitor IX, g) +100 nM GSK-3B inhibitor IX for days 1-2, and h) +10 nM GSK-3B inhibitor IX for days 1-2.
FIG. 31 panels a-d is for H9P49 cells and panels e-f is for H1P46 cells.
Results are expressed as fold increase over untreated cells. […] Results are expressed as fold increase over untreated cells.
H9P55 cells were grown and differentiated on human fibronectin or regular growth factor […]™ (BD Biosciences). lml of DMEM/F12 (Invitrogen/GIBCO) containing 1 ug/ml of human fibronectin (R&D systems, MN) was added to each well of 6 well tissue culture treated dish. Alternatively, regular growth factor […]™ was diluted 1:10 in DMEM/F12 and 1 ml of diluted […]™ was added to each well of 6 well tissue culture treated dish. Cells were passed with collagenase. […] Real-time PCR results (FIG. 39) confirm that formation of definitive endoderm was equivalent on fibronectin and […]™ coated plates.
To determine if the addition of Wnt-3a was causing the increase in differentiation, an inhibitor of Wnt-3 signaling was added to the cultures. […] H9 cells were cultured on plates coated with Growth Factor Reduced […] at a 1:30 dilution. The plates were coated with […] for 1 hr at room temperature. […]

For the molecule `CC(C)C[C@H](NC(=O)[C@H](Cc1ccccc1)C[C@@H](O)[C@H](Cc1ccccc1)NC(=O)OC(C)(C)C)C(=O)N[C@@H](Cc1ccccc1)C(N)=O` [L-685,458, reference compound], in experiment [1] (L-685,458 10 μM for three days), the NeuroD1 expression entry is “increased further”, the “expression of Ngn3 versus activin A alone or retinoic acid with FGFs” value is recorded as “approximately 50 fold” and the “increase of insulin expression” value amounted to 70 fold. The “expression of Hes-1” value in experiment [1] (L-685,458 10 μM, maximal inhibition on day three) is given as “decrease”.

With Group 9: IL-4 (10 ng/ml), in experiment [2], the CXCR4 relative expression was 1.4, the Goosecoid relative expression worked out at 0.9, the HNF-3B relative expression is reported as 0.89 and the Oct-4 relative expression is reported as 0.85. Moreover, in experiment [2], the SOX-2 relative expression was 1.2 and the Sox17 relative expression came to 1.

On to fibronectin, for which the “formation of definitive endoderm (real-time PCR)” value in experiment [3] (H9P55, fibronectin vs MATRIGEL coated plates) is listed as “equivalent”.

B1: Wnt-5a: Wnt ligand (Catalog #654-WN-010, R&D Systems, MN) (protein, UniProt P41221 62-380, looked up)
Protein Wnt-5a: IIGAQPLCSQLAGLSQGQKKLCHLYQDHMQYIGEGAKTGIKECQYQFRHRRWNCSTVDNTSVFGRVMQIGSRETAFTYAVSAAGVVNAMSRACREGELSTCGCSRAARPKDLPRDWLWGGCGDNIDYGYRFAKEFVDARERERIHAKGSYESARILMNLHNNEAGRRTVYNLADVACKCHGVSGSCSLKTCWLQLADFRKVGDALKEKYDSAAAMRLNSRGKLVQVNSRFNSPTTQDLVYIDPSPDYCVRNESTGSLGTQGRLCNKTSEGMDGCELMCCGRGYDQFKTVQTERCHCKFHWCCYVKCKKCTEIVDQFVCK
As to B1, the “definitive endoderm markers (real-time PCR)” value (“definitive endoderm markers” for short) in experiment [3] is listed as “minimal impact”.

B2: BMP-4: BMP-4 (Catalog #314-BP-010, R&D Systems, MN) (protein, UniProt P12644 293-408, looked up)
Bone morphogenetic protein 4: SPKHHSQRARKKNKNCRRHSLYVDFSDVGWNDWIVAPPGYQAFYCHGDCPFPLADHLNSTNHAIVQTLVNSVNSSIPKACCVPTELSAISMLYLDEYDKVVLKNYQEMVVEGCGCR
For B2, the “mesoderm marker BRY” value in experiment [3] (H9P53, BMP-4 25 ng/ml added to the DE protocol) is “induce formation”.

B3: Wnt-5b: Wnt ligand (Catalog #3006-WN-025, R&D Systems, MN) (protein, UniProt Q9H1J7 18-359, looked up)
Protein Wnt-5b: QLLTDANSWWSLALNPVQRPEMFIIGAQPVCSQLPGLSPGQRKLCQLYQEHMAYIGEGAKTGIKECQHQFRQRRWNCSTADNASVFGRVMQIGSRETAFTHAVSAAGVVNAISRACREGELSTCGCSRTARPKDLPRDWLWGGCGDNVEYGYRFAKEFVDAREREKNFAKGSEEQGRVLMNLQNNEAGRRAVYKMADVACKCHGVSGSCSLKTCWLQLAEFRKVGDRLKEKYDSAAAMRVTRKGRLELVNSRFTQPTPEDLVYVDPSPDYCLRNESTGSLGTQGRLCNKTSEGMDGCELMCCGRGYNQFKSVQVERCHCKFHWCCFVRCKKCTEIVDQYICK
Regarding B3, the “definitive endoderm markers” value in experiment [3] was “minimal impact”.

B4: Wnt-7a: Wnt ligand (Catalog #3008-WN-025, R&D Systems, MN) (protein, UniProt O00755 32-349, looked up)
Protein Wnt-7a: LGASIICNKIPGLAPRQRAICQSRPDAIIVIGEGSQMGLDECQFQFRNGRWNCSALGERTVFGKELKVGSREAAFTYAIIAAGVAHAITAACTQGNLSDCGCDKEKQGQYHRDEGWKWGGCSADIRYGIGFAKVFVDAREIKQNARTLMNLHNNEAGRKILEENMKLECKCHGVSGSCTTKTCWTTLPQFRELGYVLKDKYNEAVHVEPVRASRNKRPTFLKIKKPLSYRKPMDTDLVYIEKSPNYCEEDPVTGSVGTQGRACNKTAPQASGCDLMCCGRGYNTHQYARVWQCNCKFHWCCYVKCNTCSERTEMYTCK
For the molecule B4, the “definitive endoderm markers” value in experiment [3] is “minimal impact”.

B5: DKK1: Wnt Inhibitor; inhibitor of Wnt-3 signaling (protein, UniProt O94907 32-266, looked up)
Dickkopf-related protein 1: TLNSVLNSNAIKNLPPPLGGAAGHPGSAVSAAPGILYPGGNKYQTIDNYQPYPCAEDEECGTDEYCASPTRGGDAGVQICLACRKRRKRCMRHAMCCPGNYCKNGICVSSDQNHFRGEIEETITESFGNDHSTLDGYSRRTTLSSKMYHTKGQEGSVCLRSSDCASGLCCARHFWSKICKPVLKEGQVCTKHRRKGSHGLEIFQRCYCGEGLSCRIQKDHHQASNSSRLHTCQRH
For the molecule B5, in experiment [3] (H9, 100 ng/ml DKK1 with 20 ng/ml Wnt3a and 100 ng/ml activin A, day 5), the “expression level of differentiation markers (CXCR4, GATA4, HNF-3beta, SOX17, goosecoid)” value is on record as “dramatically decrease”.
